# Test results taken from patent US20260015340A1, “COMPOUND INCLUDING 2,4-DIAMINOPYRIDINE, PREPARATION METHOD THEREFOR, AND PHARMACEUTICAL COMPOSITION CONTAINING SAME AS ACTIVE INGREDIENT FOR PREVENTION OR TREATMENT OF CANCER” (KOREA RESEARCH INSTITUTE OF CHEMICAL TECHNOLOGY, priority 2022, published 2026).
# Where two headings read alike, the source gives them in different places.
# Tests used:
# Human PBMC = assay: IL-2 measurement for T cell activation enhancement; assay type: cell-based; conditions: CD3/CD28 Dynabeads, 6 days, FIG. 2
# Method: Human PBMC was seeded at a density of 2×10^5 cells per well in a 96-well plate. The cells were pretreated for one hour with serial dilutions of the compounds 1 to 3 synthesized in Example 1 starting from 3 μM. Afterward, CD3/CD28 Dynabeads were added to the cells at a 1:1 ratio and incubated for 6 days. After incubation, the cells and media were analyzed using the Sartorius human T cell activation cell and cytokine profiling kit with the iQue system. IL-2, a biomarker used to assess T cell activation, was measured. The results were calculated by setting the positive control group (treated with Dynabeads alone) as 100%.
# MLK3 (h) = MLK3 (h) (Homo sapiens, UniProt Q16584); assay: Inhibition against kinase activity of MLK3 (33P-ATP filter assay); assay type: biochemical
# Chain of MLK3 (h) (Q16584 whole entry, looked up): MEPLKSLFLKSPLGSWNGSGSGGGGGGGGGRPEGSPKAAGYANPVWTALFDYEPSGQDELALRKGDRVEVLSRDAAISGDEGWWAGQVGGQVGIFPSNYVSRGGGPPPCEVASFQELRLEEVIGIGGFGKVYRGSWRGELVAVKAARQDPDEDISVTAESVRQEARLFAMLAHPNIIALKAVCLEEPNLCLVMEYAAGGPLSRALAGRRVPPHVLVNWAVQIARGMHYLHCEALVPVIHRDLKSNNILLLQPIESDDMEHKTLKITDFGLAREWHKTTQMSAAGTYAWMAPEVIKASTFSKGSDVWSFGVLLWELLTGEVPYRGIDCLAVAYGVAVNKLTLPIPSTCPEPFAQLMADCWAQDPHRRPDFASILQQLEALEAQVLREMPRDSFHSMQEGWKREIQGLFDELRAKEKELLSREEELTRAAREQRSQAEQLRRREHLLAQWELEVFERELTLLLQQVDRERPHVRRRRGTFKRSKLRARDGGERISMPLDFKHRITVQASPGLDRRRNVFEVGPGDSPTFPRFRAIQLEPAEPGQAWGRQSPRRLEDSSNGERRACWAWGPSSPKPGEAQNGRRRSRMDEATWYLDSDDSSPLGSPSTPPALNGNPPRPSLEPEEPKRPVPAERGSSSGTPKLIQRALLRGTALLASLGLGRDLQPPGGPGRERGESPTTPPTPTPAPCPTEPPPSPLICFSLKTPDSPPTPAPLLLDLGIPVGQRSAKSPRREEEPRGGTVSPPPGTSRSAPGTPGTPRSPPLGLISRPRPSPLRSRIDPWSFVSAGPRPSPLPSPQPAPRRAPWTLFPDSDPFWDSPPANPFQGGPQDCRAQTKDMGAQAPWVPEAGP
# Method: The kinase inhibition activity against MLK3 was measured as follows. Recombinant human […] protein was mixed with the compounds in a reaction solution (8 mM MOPS, pH 7.0, 0.2 mM EDTA, 0.33 mg/mL myelin basic protein, 5 mM DTT, 10 mM magnesium acetate, and 45 μM [gamma-33P-ATP]). The mixture was incubated at room temperature for 40 minutes. The reaction was terminated by adding phosphoric acid at a final concentration of 0.5%. A 10 μL aliquot of the reaction solution was then spotted onto a P30 filter, which was washed four times in 0.425% phosphoric acid solution for 4 minutes each and then washed once in methanol. The filters were dried, and MLK3 activity was measured via scintillation counting. The MLK3 activity observed in the control group free of the compounds was set as 100%, and the inhibition by the compounds was expressed relative to this control value. To calculate the IC50 value, the compounds were diluted in 9 concentrations, starting from a maximum of 1 μM in a threefold serial dilution. The IC50 was defined as the concentration at which 50% inhibition was observed.
# HPK1 (h) = HPK1 (h) (Homo sapiens (Human), UniProt Q92918); assay: Inhibition against kinase activity of HPK1 (33P-ATP filter assay); assay type: biochemical
# Chain of HPK1 (h) (Q92918 whole entry): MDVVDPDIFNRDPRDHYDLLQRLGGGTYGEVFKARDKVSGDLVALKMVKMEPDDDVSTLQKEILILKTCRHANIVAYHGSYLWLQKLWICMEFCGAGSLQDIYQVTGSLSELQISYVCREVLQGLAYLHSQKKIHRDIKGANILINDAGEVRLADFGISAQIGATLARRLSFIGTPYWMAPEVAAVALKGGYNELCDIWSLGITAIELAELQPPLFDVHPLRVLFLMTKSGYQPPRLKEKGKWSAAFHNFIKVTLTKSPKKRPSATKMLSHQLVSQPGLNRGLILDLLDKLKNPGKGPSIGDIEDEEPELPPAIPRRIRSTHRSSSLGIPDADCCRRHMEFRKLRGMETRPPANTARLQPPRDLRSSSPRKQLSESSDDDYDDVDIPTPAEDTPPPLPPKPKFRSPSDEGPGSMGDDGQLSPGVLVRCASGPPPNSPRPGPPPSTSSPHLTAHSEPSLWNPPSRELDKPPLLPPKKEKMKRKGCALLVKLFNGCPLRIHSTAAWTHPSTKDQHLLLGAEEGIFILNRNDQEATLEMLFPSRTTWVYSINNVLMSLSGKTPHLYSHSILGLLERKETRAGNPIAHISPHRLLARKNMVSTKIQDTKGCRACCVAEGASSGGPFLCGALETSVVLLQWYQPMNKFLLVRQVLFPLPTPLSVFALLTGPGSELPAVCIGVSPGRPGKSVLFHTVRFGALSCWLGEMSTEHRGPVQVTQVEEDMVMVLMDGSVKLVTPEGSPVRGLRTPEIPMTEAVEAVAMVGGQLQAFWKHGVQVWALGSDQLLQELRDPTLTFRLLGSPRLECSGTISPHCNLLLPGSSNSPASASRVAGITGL
# Method: Inhibition against kinase activity of HPK1 was measured as follows. Recombinant human HPK1 protein was mixed with the compounds in a reaction solution (8 mM MOPS, pH 7.0, 0.2 mM EDTA, 0.33 mg/mL myelin basic protein, 10 mM magnesium acetate, and 15 μM [gamma-33P-ATP]). The mixture was incubated at room temperature for 40 minutes. The reaction was terminated by adding phosphoric acid at a final concentration of 0.5%. A 10 μL aliquot of the reaction solution was spotted onto a P30 filter, washed four times in 0.425% phosphoric acid solution for 4 minutes each, and washed once with methanol. The filters were dried, and HPK1 activity was measured via scintillation counting. The HPK1 activity observed in the control group free of the compounds was set as 100%, and the inhibition by the compounds was expressed relative to this control value. To calculate the IC50 value, the compounds were diluted in 9 concentrations, starting from a maximum of 1 μM in a threefold serial dilution. The IC50 was defined as the concentration at which 50% inhibition was observed.
# [1] = tested on: cisplatin-resistant cell line A2780/cis; assay: Anticancer activity, CCK8 cell viability; assay type: cell-based; conditions: Homo sapiens, A2780cis, 72 h, A2780/cis cells, three days, FIG. 1
# Method: (§1) The anticancer activity of the MLK3 and HPK1 kinase inhibitor compounds was evaluated using the human ovarian cancer cell line A2780 and the cisplatin-resistant cell line A2780/cis. A2780 and A2780/cis cells were cultured at a density of 4000 cells per well in 96-well plates and stabilized for one day. The compounds 1 to 3 synthesized in Example 1 were serially diluted starting from a concentration of 10 μM and applied to the cells. The treated cells were incubated for three days, and cell viability was measured using CCK8 reagent, with the concentration at which 50% of the cancer cells died expressed as the GI50.
# [2] = tested on: human ovarian cancer cell line A2780; assay: Anticancer activity, CCK8 cell viability; assay type: cell-based; conditions: 72 h, A2780 cells, three days, FIG. 1
# Method: as §1
# [3] = tested on: doxorubicin-resistant blood cancer K562/ADM; assay: Anticancer activity in other cancer cell lines; assay type: cell-based; conditions: Homo sapiens
# Method: as §1
# (§2) Additionally, the anticancer activity of the compounds was also observed in other cancer cell lines (blood cancer, breast cancer, ovarian cancer, lung cancer, and brain cancer), as well as in drug-resistant cancer cell lines (doxorubicin-resistant blood cancer K562/ADM; and paclitaxel-resistant breast cancer MDA-MB-231/PTX).
# [4] = tested on: paclitaxel-resistant breast cancer MDA-MB-231/PTX; assay: Anticancer activity in other cancer cell lines; assay type: cell-based; conditions: Homo sapiens
# Method: as §1, §2
# SH-SY5Y = assay: Anticancer activity in other cancer cell lines; assay type: cell-based; conditions: Homo sapiens
# Method: as §1, §2
# MDA-MB-231 = assay: Anticancer activity in other cancer cell lines; assay type: cell-based; conditions: Homo sapiens
# Method: as §1, §2
# K562 = assay: Anticancer activity in other cancer cell lines; assay type: cell-based; conditions: Homo sapiens
# Method: as §1, §2
# MDA-MB-453 = assay: Anticancer activity in other cancer cell lines; assay type: cell-based; conditions: Homo sapiens
# Method: as §1, §2
# A549 = assay: Anticancer activity in other cancer cell lines; assay type: cell-based; conditions: Homo sapiens
# Method: as §1, §2
# U937 = assay: Anticancer activity in other cancer cell lines; assay type: cell-based; conditions: Homo sapiens, U-937
# Method: as §1, §2
# SKOV3 = assay: Anticancer activity in other cancer cell lines; assay type: cell-based; conditions: Homo sapiens, SK-OV-3
# Method: as §1, §2
# [5] = MLK3 (h), 45 μM ATP, read-out: IC50
# [6] = approximate value, read-out: IC50 value for MLK3 inhibition
# [7] = HPK1 (h), 15 μM ATP, read-out: IC50
# [8] = approximate value, read-out: IC50 value for HPK1 inhibition
IC50 (MLK3 (h); [5]) [nM],IC50 (MLK3 (h); [6]) [nM],IC50 (HPK1 (h); [7]) [nM],IC50 (HPK1 (h); [8]) [nM],GI50 [1] [nM],GI50 [2] [nM],GI50 [3] [nM],GI50 [4] [nM],GI50 (SH-SY5Y) [nM],GI50 (MDA-MB-231) [nM],GI50 (K562) [nM],GI50 (MDA-MB-453) [nM],GI50 (A549) [nM],GI50 (U937) [nM],GI50 (SKOV3) [nM],SMILES,IL-2 levels (T cell activation) (Human PBMC)
100 to 500,~140,1 to 100,~30,~400,~200,3740,990,390,1250,430,1020,1610,290,1700,"CC1(C)OC(=O)c2ccc(Nc3nc(Nc4ccc5c(c4)CCNC5)ncc3Cl)cc21 [Compound 1, 5-((5-chloro-2-((1,2,3,4-tetrahydroisoquinolin-6-yl)amino)pyrimidin-4-yl)amino)-3,3-dimethylisobenzofuran-1(3H)-one]",increased IL-2 levels
100 to 500,~200,1 to 100,~50,~310,~210,2280,770,280,1030,1070,2900,1150,440,1500,"CC1(C)OC(=O)c2cc(Nc3nc(Nc4ccc5c(c4)CCNC5)ncc3Cl)ccc21 [Compound 2, 6-((5-chloro-2-((1,2,3,4-tetrahydroisoquinolin-6-yl)amino)pyrimidin-4-yl)amino)-3,3-dimethylisobenzofuran-1(3H)-one]",increased IL-2 levels
> 1000,,500 to 1000,~900,,,> 10000,1110,550,1350,> 10000,1070,> 10000,> 10000,> 10000,"CC1(C)OC(=O)c2ccc(Nc3ncc(Cl)c(Nc4ccc5c(c4)C(C)(C)OC5=O)n3)cc21 [Compound 3, 5,5′-((5-Chloropyrimidine-2,4-diyl)bis(azanediyl))bis(3,3-dimethylisobenzofuran-1(3H)-one)]",
